Reference: US6908945B2, “Ester compound and its use” (Sumitomo Chemical Company, Limited, priority 2002, dated 2005)

Tests used:
Adult houseflies = test: Knock-down test, oil solution sprayed into cubic chamber, adult houseflies; assay type: in vivo; settings: 70 cm cubic chamber, 5 male and 5 female adult houseflies, counted for 10 minutes; for time for knocking down half of the tested insects (KT50): 0.7 ml of 0.00625% oil solution sprayed, two repetitions
Source text: A solution of 0.025 part of the present compound prepared by the production example mentioned above dissolved with 10 parts of dichloromethane was mixed with 89.9975 parts of deodorized kerosene to give a […] oil solution.
(§1) Adult houseflies (5 males and 5 females) were left in a cubic chamber (70 cm at side). Seven-tenths (0.7) ml of the 0.025% oil solution of the present compound prepared above was sprayed with a spray gun at a pressure of 8.8×10^4 Pa from a small window on the side of the chamber. Then, the number of the knocked-down insects was counted at times for 10 minutes. The time for knocking down half of the tested insects was 1.0 minute.
A solution of 0.00625 part of the present compound prepared by the production example mentioned above dissolved with 10 parts of dichloromethane was mixed with 89.99375 parts of deodorized kerosene to give a 0.00625% oil solution.
Adult houseflies (5 males and 5 females) were left in a cubic chamber (70 cm at side). Seven-tenths (0.7) ml of the 0.00625% oil solution of the present compound prepared above was sprayed with a spray gun at a pressure of 8.8×10^4 Pa from a small window on the side of the chamber. Then, the number of the knocked-down insects was counted at times for 10 minutes (two repetitions). The time for knocking down half of the tested insects (KT50) was observed. The KT50 value was 1.1 minutes.
The same test except that 4-methoxymethy-2,3,5,6-tetrafluorobenzyl (1R,trans)-3-(2-fluoro-1-propenyl)-2,2-dimethylcyclopropanecarboxylate, which is a compound of Example 12 of WO 99/32426, was used in place of the present compound was performed for reference. The KT50 value was 5.0 minutes.

[1] = tested on: female common mosquitoes (Culex pipiens pallens); test: Knock-down test, oil solution sprayed into cubic chamber, common mosquitoes; assay type: in vivo; settings: 0.7 ml of 0.00625% oil solution sprayed, 70 cm cubic chamber, ten female Culex pipiens pallens, counted for 10 minutes
Source text: A solution of 0.00625 part of the present compound (1R,cis-E) dissolved with 10 parts of dichloromethane was mixed with 89.99375 parts of deodorized kerosene to give a […] oil solution.
as §1, with “Ten female common mosquitoes (Culex pipiens pallens)” for “Adult houseflies (5 males and 5 females)”, “0.00625%” for “0.025%”, “1.3” for “1.0”
The same test except that 3-phenoxybenzyl (1R,cis)-3-((E)-2-cyano-1-propenyl)-2,2-dimethylcyclopropanecarboxylate, which is a compound described in Indian Patent No. 152306, was used in place of the present compound was performed for reference. The KT50 value was 8.0 minutes.

SMILES	time for knocking down half of the tested insects (KT50) (Adult houseflies) [min]	time for knocking down half of the tested insects (Adult houseflies; 0.7 ml of 0.025% oil solution sprayed) [min]	time for knocking down half of the tested insects (KT50) [1] [min]
COCc1c(F)c(F)c(COC(=O)C2C(C=C(C)C#N)C2(C)C)c(F)c1F (centres unmarked) [present compound, 4-methoxymethy-2,3,5,6-tetrafluorobenzyl 3-(2-cyano-1-propenyl)-2,2-dimethylcyclopropanecarboxylate]	1.1	1.0	
COCc1c(F)c(F)c(COC(=O)C2C(C=C(C)C#N)C2(C)C)c(F)c1F [present compound (1R,cis-E)]			1.3
C/C(C#N)=C\[C@H]1[C@@H](C(=O)OCc2cccc(Oc3ccccc3)c2)C1(C)C (relative stereo) [3-phenoxybenzyl (1R,cis)-3-((E)-2-cyano-1-propenyl)-2,2-dimethylcyclopropanecarboxylate, reference compound]			8.0
COCc1c(F)c(F)c(COC(=O)[C@@H]2[C@H](C=C(C)F)C2(C)C)c(F)c1F (relative stereo) [Example 12 of WO 99/32426, 4-methoxymethy-2,3,5,6-tetrafluorobenzyl (1R,trans)-3-(2-fluoro-1-propenyl)-2,2-dimethylcyclopropanecarboxylate, reference compound]	5.0		
